# Experimental data as given in paper PMC3183312 (European journal of medicinal chemistry, 2011).
# Tested on: HIV-1NL4-3
# Assay: HIV-1 infectivity assay, single cycle infection, Luc reporter in TZM-bl cells
# Format: cell-based
# Conditions: HIV-1NL4-3 in TZM-bl cells, discussion of Table 2
row,SMILES,anti-HIV activity (in words)
1,"CCc1cc(=O)c2ccc(OC3CCOC3=O)c(COC(=O)[C@@]34CCC(C)(C(=O)O3)C4(C)C)c2o1 (stereo partly drawn) [Compound 16, 4′-((−)-Camphanoyloxymethyl)-2-ethyl-7-(2-oxo-tetrahydrofuran-3-yloxy)-4H-chromen-4-one]",lost all activity
2,"CCc1cc(=O)c2ccc(OCc3cc(OC)c(OC)cc3[N+](=O)[O-])c(COC(=O)[C@@]34CCC(C)(C(=O)O3)C4(C)C)c2o1 [Compound 28, 4′-((−)-Camphanoyloxymethyl)-7-(4,5-dimethoxy-2-nitrobenzyloxy)-2-ethyl-4H-chromen-4-one]",lost all activity
3,"CCc1cc(=O)c2ccc(OCc3cc(OC)cc(OC)c3)c(COC(=O)C34CCC(C)(C(=O)O3)C4(C)C)c2o1 (stereo not drawn) [Compound 25, 4′-((−)-Camphanoyloxymethyl)-7-(3,5-dimethoxybenzyloxy)-2-ethyl-4H-chromen-4-one]",very weak anti-HIV activity
4,"CCc1cc(=O)c2ccc(OCc3cccc(C(F)(F)F)c3)c(COC(=O)[C@@]34CCC(C)(C(=O)O3)C4(C)C)c2o1 [Compound 20, 4′-((−)-Camphanoyloxymethyl)-2-ethyl-7-(3-(trifluoromethyl)benzyloxy)-4H-chromen-4-one]",lost all activity

# Tested on: not listed separately
# Assay: Chemical stability analysis in acidic conditions with HPLC monitoring
# Format: physicochemical
# Conditions: 1% HCl/MeOH/rt; peak area percentage by HPLC; preliminary
row,Purity (area %) Reaction Time = 1 min,SMILES
1,100%,Cc1cc(=O)oc2c(COC(=O)[C@@]34CC[C@@](C)(C(=O)O3)C4(C)C)c(OC(C)C)ccc12 [Compound 7]
2,100%,"CCc1cc(=O)c2ccc3c(c2o1)[C@@H](OC(=O)C12CCC(C)(C(=O)O1)C2(C)C)[C@@H](OC(=O)C12CCC(C)(C(=O)O1)C2(C)C)C(C)(C)O3 (stereo partly drawn) [Compound 4, 2-ethyl DCP]"
3,100%,"CCc1cc(=O)c2ccc(OC(C)C)c(COC(=O)C34CCC(C)(C(=O)O3)C4(C)C)c2o1 (stereo not drawn) [Compound 12, 4′-((−)-Camphanoyloxymethyl)-2-ethyl-7-isopropoxy-4H-chromen-4-one]"
4,100%,"Cc1cc(=O)oc2c3c(ccc12)OC(C)(C)[C@H](OC(=O)[C@@]12CC[C@@](C)(C(=O)O1)C2(C)C)[C@@H]3OC(=O)[C@@]12CC[C@@](C)(C(=O)O1)C2(C)C [Compound 2, 4-methyl-DCK]"
5,100%,"Cc1cc(=O)oc2c(COC(=O)[C@@]34CC[C@@](C)(C(=O)O3)C4(C)C)c(SC(C)C)ccc12 [Compound 32, 4′-((−)-Camphanoyloxymethyl)-7-(isopropylthio)-4-methyl-2H-chromen-2-one]"
